# Measured values from ChEMBL document CHEMBL1155698, “Two new antimicrobial lysoplasmanylinositols from the marine sponge Theonella swinhoei” (2001).
# Active and inactive are the calls of the source. No cut-off for these calls is given here.
# What was measured:
# [1] = test system: Umbelopsis ramanniana; assay: Antimicrobial activity against Mortierella ramanniana; assay type: functional, organism-based
# [2] = test system: Escherichia coli; assay: Antimicrobial activity against Escherichia coli at 50 ug/disk; assay type: functional; conditions: read-out: IZ
# [3] = test system: Escherichia coli; assay: Antimicrobial activity against Escherichia coli by […]; assay type: functional, organism-based
Structure (SMILES),Activity [1],zone of inhibition at 50 µg/disc [2],Activity [3]
CCCCCCCC(C)CCCCCCCCOC[C@@H](O)COP(=O)(O)O[C@@H]1[C@@H](O)[C@H](O)[C@@H](O)[C@H](O)[C@@H]1O (some centres undefined),inactive,12 mm,–
CCCCCCC1C(C)C1CCCCCCCOC[C@@H](O)COP(=O)(O)O[C@@H]1[C@@H](O)[C@H](O)[C@@H](O)[C@H](O)[C@@H]1O (some centres undefined),inactive,–,Active
